The record followed here is PMC6934184, “Selective DNA-PKcs inhibition extends the therapeutic index of localized radiotherapy and chemotherapy” (The Journal of Clinical Investigation, 2019).

The target in this test is T1, PTK2B (FAK2) (Homo sapiens, UniProt Q14289).
T1 construct: purchased Thermo Fisher Scientific (Life Technologies) SelectScreen
Briefly: SelectScreen Z'LYTE. The class given is biochemical. In a few lines:
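Percent values come from Thermo SelectScreen profiling of NU5455, combining activity and binding assays. CSF1R was run in Z'LYTE format at Km app ATP, and CAMK1 in Adapta format with ATP listed at 10.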

Each structure is given as a SMILES string.

T1 sequence (Q14289 whole entry): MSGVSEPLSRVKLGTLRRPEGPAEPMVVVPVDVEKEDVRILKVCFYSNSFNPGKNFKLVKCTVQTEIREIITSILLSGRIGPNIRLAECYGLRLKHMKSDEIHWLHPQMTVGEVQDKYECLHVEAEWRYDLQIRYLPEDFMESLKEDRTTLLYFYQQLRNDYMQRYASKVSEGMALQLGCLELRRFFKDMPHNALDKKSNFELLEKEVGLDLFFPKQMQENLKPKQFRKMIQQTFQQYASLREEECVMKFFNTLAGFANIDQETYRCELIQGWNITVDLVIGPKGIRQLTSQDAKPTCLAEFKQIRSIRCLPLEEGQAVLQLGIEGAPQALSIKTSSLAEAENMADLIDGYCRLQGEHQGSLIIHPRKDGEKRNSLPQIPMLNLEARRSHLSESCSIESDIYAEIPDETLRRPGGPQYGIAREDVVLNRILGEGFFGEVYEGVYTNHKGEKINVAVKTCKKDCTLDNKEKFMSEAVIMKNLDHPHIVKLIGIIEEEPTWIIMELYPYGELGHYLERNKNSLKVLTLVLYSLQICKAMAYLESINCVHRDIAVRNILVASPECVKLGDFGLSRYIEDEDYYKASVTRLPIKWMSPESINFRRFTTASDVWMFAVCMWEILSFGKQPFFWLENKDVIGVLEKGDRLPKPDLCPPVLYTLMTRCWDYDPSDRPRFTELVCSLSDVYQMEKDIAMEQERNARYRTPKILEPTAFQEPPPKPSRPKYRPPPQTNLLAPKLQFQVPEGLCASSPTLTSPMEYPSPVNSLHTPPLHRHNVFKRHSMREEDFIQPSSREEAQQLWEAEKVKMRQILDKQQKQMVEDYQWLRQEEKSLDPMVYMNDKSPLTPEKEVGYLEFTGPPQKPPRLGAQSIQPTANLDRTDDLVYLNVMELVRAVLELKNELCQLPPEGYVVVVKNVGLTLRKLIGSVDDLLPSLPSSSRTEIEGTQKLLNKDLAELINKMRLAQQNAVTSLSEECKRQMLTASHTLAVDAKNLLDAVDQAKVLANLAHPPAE

On to `CN(C(=O)CN1CCOCC1)c1ccc2sc3c(-c4cccc5c(=O)cc(N6CC7CCC(C6)O7)oc45)cccc3c2c1` [NU5455], for which the inhibition (usually the drop in the measured response relative to a control, in per cent) at 1 µM worked out at 4.2%.
